Results published in publication PMC11949107, “Polyunsaturated fatty acids and their endocannabinoid-related metabolites activity at human TRPV1 and TRPA1 ion channels expressed in HEK-293 cells” (PeerJ, 2025).
“And” between values parts separate entries of the source, which are not always exact repeats. Equal entries are not always repeated. Where two headings read alike, the source gives them in different places.

Legend:
HEK-293 EV cells = test: Calcium 5 dye [Ca]i assay in HEK-293 empty vector (EV) cells; assay type: cell-based, human; conditions: 10 µM; HEK-293 EV cells; percentage of predrug baseline
In short: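 Tetracycline at 1 µg ml^−1 was added 4 h before testing; cells were loaded with Calcium 5 dye for 1 h and read at 37 °C, with drug added after 1 min baseline (final 0.1% DMSO). The response was the % change from the 60 s baseline after solvent subtraction, and EC50/Emax came from a three-parameter logistic fit, reported as pEC50.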

human TRPV1 [1] = target: T1, human TRPV1 (Homo sapiens, UniProt Q8NER1); test: Pre-incubation with PUFAs or capsazepine, then capsaicin (10 nM) response in HEK-293 TRPV1 cells; assay type: cell-based; conditions: for Effect of pre-treatment on the capsaicin response: 10 µM, 5 min exposure, then capsaicin 10 nM; for Post-capsaicin: response to subsequent capsaicin addition, individual experiments: capsaicin 10 nM after 5 min drug 10 µM; for Post-capsaicin: response to subsequent capsaicin addition, individual experiments / Pre-capsaicin: response to first drug, individual experiments: TRPV1 cells; for Pre-capsaicin: response to first drug, individual experiments: drug 10 µM for 5 min
T1 construct: Life Technologies (cells); host or cells: Flp-In T-REx HEK-293
Method: Intracellular calcium [Ca]i levels were assessed using the calcium 5 kit from Molecular Devices (# R8186, Sunnyvale, CA, USA) on a FlexStation 3 Microplate Reader (Molecular Devices, Sunnyvale, CA, USA). […] Probenecid (cat # 50027; Biotium) which helps to prevent expulsion of calcium indicator from the cells was added to a final concentration of 1.25 mM. 90 µL of the dye were loaded into each well of the plate and incubated for 1 h before reading in the FlexStation 3 at 37 °C. Fluorescence was recorded every 2 s (λ excitation = 485 nm, λ emission = 525 nm) for 5 min. After 1 min of baseline recording, 20 µL of the drug, dissolved in HBSS with 1% dimethyl sulfoxide (DMSO) (cat # D2650; Sigma-Aldrich, Melbourne, Australia) was added (final DMSO concentration was 0.1% in well). […]

human TRPA1 = target: T2, human TRPA1 (Homo sapiens, UniProt O75762); test: Calcium 5 dye [Ca]i assay in HEK-293 Flp-In T-REx cells expressing TRPA1 (agonist response); assay type: cell-based; conditions: for Elevation of [Ca]i in HEK-293 TRPA1 cells compared with HEK-293 EV cells: 10 µM (cinnamaldehyde 300 µM); for Change of Ca5 fluorescence, Mean ± SEM, TRPA1 (10 µM): HEK-293 TRPA1 cells, percentage of predrug baseline; for TRPA1 activation at the highest concentration tested: 30 µM; for Emax at 30 µM: HEK293, read-out: Emax ± SEM % TRPA1 (30 µM); for [Ca]i response (change in fluorescence), individual replicates: sheet Figure 4
T2 construct: Life Technologies (cells); host or cells: Flp-In T-REx HEK-293
In short: (§1)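 Tetracycline-induced (1 µg ml^−1, 4 h) HEK-293 T-REx cells loaded with Calcium 5 dye plus 1.25 mM probenecid for 1 h; agonist added after 1 min baseline (0.1% DMSO final), fluorescence (485/525 nm) read every 2 s for 5 min at 37 °C. Response as % change from baseline, solvent-subtracted; EC50/Emax from three-parameter logistic fit, given as pEC50.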

human TRPV1 [2] = target: T1, human TRPV1; test: PMA (phorbol ester) potentiation of TRPV1 responses in HEK-293 TRPV1 cells; assay type: cell-based; parameters: key to Drugs alone, individual experiments: change in [Ca]i as % of pre-drug baseline
Method: Intracellular calcium [Ca]i levels were assessed using the calcium 5 kit from Molecular Devices (# R8186, Sunnyvale, CA, USA) on a FlexStation 3 Microplate Reader (Molecular Devices, Sunnyvale, CA, USA). […] Probenecid (cat # 50027; Biotium) which helps to prevent expulsion of calcium indicator from the cells was added to a final concentration of 1.25 mM. 90 µL of the dye were loaded into each well of the plate and incubated for 1 h before reading in the FlexStation 3 at 37 °C. Fluorescence was recorded every 2 s (λ excitation = 485 nm, λ emission = 525 nm) for 5 min. After 1 min of baseline recording, 20 µL of the drug, dissolved in HBSS with 1% dimethyl sulfoxide (DMSO) (cat # D2650; Sigma-Aldrich, Melbourne, Australia) was added (final DMSO concentration was 0.1% in well).
We initially determined the effect of PMA, another phorbol ester that is a protein kinase C activator ([Jiang & Fleet, 2012]) on HEK-293 TRPV1 expressing cells.
(A) Response of HEK-293 TRPV1 expressing cells for PMA at various concentration. […] Drugs were added for the duration of the bar; (D) The effects of PUFAs after potentiation of TRPV1 by PMA. […] Changes in [Ca]i are expressed as percentage of the pre-drug baseline, with the response to PMA alone at 5 min subtracted. The black circles represent the response of PUFAs without PMA pretreatment while the pink circles represent the response of PUFAs after PMA potentiation.

human TRPV1 [3] = target: T1, human TRPV1; test: Calcium 5 dye [Ca]i assay in HEK-293 Flp-In T-REx cells expressing TRPV1 (agonist response); assay type: cell-based; conditions: for Elevation of [Ca]i in HEK-293 TRPV1 cells compared with HEK-293 EV cells / Change of Ca5 fluorescence, Mean ± SEM, TRPV1 (10 µM): 10 µM; for Change of Ca5 fluorescence, Mean ± SEM, TRPV1 (10 µM): HEK-293 TRPV1 cells, percentage of predrug baseline; for Change in Ca5 fluorescence, individual experiments (CRC raw data): TRPV1 cells
In short: as §1

T1 sequence (Q8NER1 whole entry): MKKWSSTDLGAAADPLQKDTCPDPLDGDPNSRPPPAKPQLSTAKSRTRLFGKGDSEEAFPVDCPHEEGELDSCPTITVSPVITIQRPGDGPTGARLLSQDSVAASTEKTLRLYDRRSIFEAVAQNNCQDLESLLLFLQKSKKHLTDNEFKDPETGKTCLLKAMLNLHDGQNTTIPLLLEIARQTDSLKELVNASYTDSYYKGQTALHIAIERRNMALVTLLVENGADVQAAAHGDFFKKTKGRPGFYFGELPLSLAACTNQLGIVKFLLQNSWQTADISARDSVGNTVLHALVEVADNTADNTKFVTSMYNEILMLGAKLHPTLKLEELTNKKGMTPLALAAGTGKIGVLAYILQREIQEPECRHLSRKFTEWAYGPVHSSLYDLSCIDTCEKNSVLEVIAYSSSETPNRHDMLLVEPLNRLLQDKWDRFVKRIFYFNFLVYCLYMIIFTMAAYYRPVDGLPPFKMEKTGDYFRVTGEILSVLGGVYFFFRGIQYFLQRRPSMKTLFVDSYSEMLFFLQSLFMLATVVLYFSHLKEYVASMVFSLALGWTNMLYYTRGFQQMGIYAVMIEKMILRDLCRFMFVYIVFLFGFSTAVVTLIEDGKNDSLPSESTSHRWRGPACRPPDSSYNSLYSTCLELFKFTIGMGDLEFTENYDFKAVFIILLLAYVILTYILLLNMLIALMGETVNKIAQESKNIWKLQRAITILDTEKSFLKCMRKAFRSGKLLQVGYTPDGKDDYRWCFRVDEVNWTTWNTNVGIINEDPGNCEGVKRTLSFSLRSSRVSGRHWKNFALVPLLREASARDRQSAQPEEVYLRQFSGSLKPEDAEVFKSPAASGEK
T2 sequence (O75762 whole entry): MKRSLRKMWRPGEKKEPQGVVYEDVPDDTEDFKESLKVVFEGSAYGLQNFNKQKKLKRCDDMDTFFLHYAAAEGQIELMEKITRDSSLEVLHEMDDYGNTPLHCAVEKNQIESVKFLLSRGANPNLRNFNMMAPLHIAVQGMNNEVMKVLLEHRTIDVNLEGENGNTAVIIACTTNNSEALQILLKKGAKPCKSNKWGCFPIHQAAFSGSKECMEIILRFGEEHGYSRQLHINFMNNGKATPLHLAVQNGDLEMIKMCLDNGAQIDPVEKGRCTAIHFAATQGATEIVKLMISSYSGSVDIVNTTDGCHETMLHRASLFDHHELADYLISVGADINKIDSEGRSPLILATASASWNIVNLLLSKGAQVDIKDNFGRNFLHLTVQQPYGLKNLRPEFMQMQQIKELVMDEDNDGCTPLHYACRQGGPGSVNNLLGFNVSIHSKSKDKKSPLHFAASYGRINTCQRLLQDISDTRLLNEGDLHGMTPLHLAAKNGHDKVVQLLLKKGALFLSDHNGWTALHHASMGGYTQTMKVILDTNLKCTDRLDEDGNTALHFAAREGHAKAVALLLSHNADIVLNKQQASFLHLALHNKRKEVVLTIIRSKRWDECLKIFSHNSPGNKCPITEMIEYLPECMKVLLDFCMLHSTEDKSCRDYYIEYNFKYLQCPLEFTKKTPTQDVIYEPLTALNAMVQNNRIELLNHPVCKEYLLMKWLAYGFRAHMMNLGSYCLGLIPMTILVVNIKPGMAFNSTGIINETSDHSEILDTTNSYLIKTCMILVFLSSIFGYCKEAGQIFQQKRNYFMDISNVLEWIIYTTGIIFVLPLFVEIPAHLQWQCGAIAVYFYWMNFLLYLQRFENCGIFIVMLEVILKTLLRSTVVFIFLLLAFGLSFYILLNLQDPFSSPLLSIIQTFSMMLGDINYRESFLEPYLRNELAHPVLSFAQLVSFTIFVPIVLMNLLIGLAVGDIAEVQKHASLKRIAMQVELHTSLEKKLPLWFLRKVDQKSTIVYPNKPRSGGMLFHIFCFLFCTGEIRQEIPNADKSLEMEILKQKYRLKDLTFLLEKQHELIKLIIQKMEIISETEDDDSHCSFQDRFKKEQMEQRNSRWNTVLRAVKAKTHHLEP

`CC/C=C\C/C=C\C/C=C\C/C=C\C/C=C\C/C=C\CCC(=O)O` [DHA, docosahexaenoic acid] was tested, and the “Change of Ca5 fluorescence, Mean ± SEM, EV (10 µM)” value (HEK-293 EV cells) was 11 ± 2%, the “Effect of pre-treatment on the capsaicin response” value (“Effect of pre-treatment” for short) (human TRPV1 [1]) was “did not affect” and the “Post-capsaicin: response to subsequent capsaicin addition, individual experiments” value (“Post-capsaicin: response” below) (human TRPV1 [1]) was 262.478 and 230.552 and 119.965 and 325.766 and 236.554 and 370.087. For the same compound, the “Pre-capsaicin: response to first drug, individual experiments” value (from here on “Pre-capsaicin: response to first drug”) (human TRPV1 [1]) was 15.3316 and 14.4172 and 9.221 and 4.601 and 11.1415 and 4.871, the “Elevation of [Ca]i in HEK-293 TRPA1 cells compared with HEK-293 EV cells” value (human TRPA1) was “did not produce a change” and the “Change of Ca5 fluorescence, Mean ± SEM, TRPA1 (10 µM)” value (human TRPA1) was 129 ± 81%. For the same compound, the “TRPA1 activation at the highest concentration tested” value (human TRPA1) was “activated TRPA1”, the Emax at 30 µM (human TRPA1; highest tested concentration (30 µM) or derived from concentration-response curves (cinnamaldehyde)) was 408 ± 54% and the “[Ca]i response (change in fluorescence), individual replicates” value (from here on “[Ca]i response (change in fluorescence)”) (human TRPA1; concentration -4.52288 (log)) was 600.618 and 528.86 and 310.75 and 311.859 and 419.884 and 278.355. For the same compound, the “[Ca]i response (change in fluorescence)” value (human TRPA1; concentration -5 (log)) was 508.031 and 185.633 and 12.6409 and 8.196 and 18.5259 and 39.1466, the “[Ca]i response (change in fluorescence)” value (human TRPA1; concentration -5.52288 (log)) was 5.528 and 1.551 and 4.973 and 2.123 and the “[Ca]i response (change in fluorescence)” value (human TRPA1; concentration -6 (log)) was 3.48 and 2.006 and 3.985 and 2.738 and 3.1287 and 4.255. For the same compound, the “[Ca]i response (change in fluorescence)” value (human TRPA1; concentration -6.52288 (log)) was 7.112 and 0.3749 and 2.033 and 5.1389, the “[Ca]i response (change in fluorescence)” value (human TRPA1; concentration -7 (log)) was 8.809 and 1.203 and 5.563 and 5.621 and the “TRPV1 response after exposure to PMA” value (human TRPV1 [2]; PMA 100 nM, 5 min pretreatment) was “only observed when a phorbol ester was present”. For the same compound, the “Drugs post-PMA, individual experiments” value (human TRPV1 [2]; PUFA 10 µM after PMA 100 nM for 5 min, response to PMA alone subtracted) was 50.0906 and 48.3811 and 19.3352 and 66.6517 and 32.7216 and 44.0204 and 2.991, the “Drugs alone, individual experiments” value (human TRPV1 [2]; PUFA 10 µM without PMA pretreatment, TRPV1 cells) was 3.985 and 5.867 and 0 and 3.833 and 0.4866 and -0.286 and 0.9124 and 2.207 and the “Elevation of [Ca]i in HEK-293 TRPV1 cells compared with HEK-293 EV cells” value (human TRPV1 [3]) was “did not produce a notable change”. For the same compound, the “Change of Ca5 fluorescence, Mean ± SEM, TRPV1 (10 µM)” value (human TRPV1 [3]) was 11 ± 2%, the Emax at 30 µM (human TRPV1 [3]; HEK293, read-out: Emax ± SEM % TRPV1 (30 µM)) was 29 ± 0.8% and the “Change in Ca5 fluorescence, individual experiments (CRC raw data)” value (from here on “Change in Ca5 fluorescence”) (human TRPV1 [3]; log concentration -4.52288 (M)) was 30.4293 and 29.6434 and 28.2029 and 25.9718 and 28.1927 and 31.4702. The “Change in Ca5 fluorescence” value (human TRPV1 [3]; log concentration -5 (M)) was 15.398 and 14.8517 and 2.207 and 13.9869 and 10.4035 and 11.2548, the “Change in Ca5 fluorescence” value (human TRPV1 [3]; log concentration -5.52288 (M)) was 5.597 and 6.862 and 1.798 and 7.576 and the “Change in Ca5 fluorescence” value (human TRPV1 [3]; log concentration -6 (M)) was 1.539 and 8.081 and 1.374 and 8.45 and 6.148 and 5.676. The “Change in Ca5 fluorescence” value (human TRPV1 [3]; log concentration -6.52288 (M)) was 0.111 and 3.665 and 0.7828 and 7.557 and the “Change in Ca5 fluorescence” value (human TRPV1 [3]; log concentration -7 (M)) was 8.793 and 7.902 and 1.12 and 9.145.

With `Oc1cc2c(cc1O)CN(C(=S)NCCc1ccc(Cl)cc1)CCC2` [capsazepine, reference compound] the “Effect of pre-treatment” value (human TRPV1 [1]) was “prevented”, the “Post-capsaicin: response” value (human TRPV1 [1]; listed as CAPZ) was 10.3375 and -4.09 and 24.8571 and 12.9593 and -2.666 and 6.069 and the “Pre-capsaicin: response to first drug” value (human TRPV1 [1]; listed as CAPZ) was 25.3514 and 3.867 and 12.8382 and 10.4656 and 4.742 and 37.2822.

For `CCCCC/C=C\C/C=C\C/C=C\CCCCC(=O)O` [γ-LA, γ-linolenic acid], the “Change of Ca5 fluorescence, Mean ± SEM, EV (10 µM)” value (HEK-293 EV cells) was 9 ± 2%, the “Effect of pre-treatment” value (human TRPV1 [1]) was “did not affect” and the “Post-capsaicin: response” value (human TRPV1 [1]; listed as GLA) was 270.139 and 251.245 and 119.532 and 316.43 and 265.849 and 338.308. For the same compound, the “Pre-capsaicin: response to first drug” value (human TRPV1 [1]; listed as GLA) was 11.5745 and 14.3439 and 14.381 and 3.4398 and 10.3554 and 15.8417, the “Elevation of [Ca]i in HEK-293 TRPA1 cells compared with HEK-293 EV cells” value (human TRPA1) was “did not produce a change” and the “Change of Ca5 fluorescence, Mean ± SEM, TRPA1 (10 µM)” value (human TRPA1) was 112 ± 61%. The “TRPA1 activation at the highest concentration tested” value (human TRPA1) was “activated TRPA1”, the Emax at 30 µM (human TRPA1) was 255 ± 73% and the “[Ca]i response (change in fluorescence)” value (human TRPA1; concentration -4.52288 (log), listed as GLA) was 481.429 and 335.153 and 71.3202 and 67.3187 and 162.48 and 414.065. For the same compound, the “[Ca]i response (change in fluorescence)” value (human TRPA1; concentration -5 (log), listed as GLA) was 268.343 and 23.3711 and 10.7965 and 8.59 and 23.2369 and 338.225, the “[Ca]i response (change in fluorescence)” value (human TRPA1; concentration -5.52288 (log), listed as GLA) was 2.578 and 5.507 and 0.9073 and 7.069 and 268.915 and the “[Ca]i response (change in fluorescence)” value (human TRPA1; concentration -6 (log), listed as GLA) was 0.8222 and 0.07304 and 2.068 and 3.637 and 4.16 and 7.0167. For the same compound, the “[Ca]i response (change in fluorescence)” value (human TRPA1; concentration -6.52288 (log), listed as GLA) was 0.1101 and 1.014 and 7.308 and 0.3513 and 4.285 and 9.421, the “[Ca]i response (change in fluorescence)” value (human TRPA1; concentration -7 (log), listed as GLA) was 0.1516 and -0.4942 and 5.21 and 2.462 and 4.3545 and 5.724 and the “Elevation of [Ca]i in HEK-293 TRPV1 cells compared with HEK-293 EV cells” value (human TRPV1 [3]) was “did not produce a notable change”. For the same compound, the “Change of Ca5 fluorescence, Mean ± SEM, TRPV1 (10 µM)” value (human TRPV1 [3]) was 10 ± 1%, the “Change in Ca5 fluorescence” value (human TRPV1 [3]; log concentration -4.52288 (M), listed as GLA) was 27.0827 and 92.1911 and 21.8805 and 27.2504 and 40.8812 and 31.4387 and the “Change in Ca5 fluorescence” value (human TRPV1 [3]; log concentration -5 (M), listed as GLA) was 15.417 and 9.771 and 8.536 and 10.7081 and 5.47 and 8.301. For the same compound, the “Change in Ca5 fluorescence” value (human TRPV1 [3]; log concentration -5.52288 (M), listed as GLA) was 2.0403 and 1.257 and 4.6526 and 4.706 and 2.248 and 2.361, the “Change in Ca5 fluorescence” value (human TRPV1 [3]; log concentration -6 (M), listed as GLA) was 3.899 and 2.392 and 3.26 and 4.994 and 2.614 and 2.892 and the “Change in Ca5 fluorescence” value (human TRPV1 [3]; log concentration -6.52288 (M), listed as GLA) was -0.6308 and 4.773 and 3.415 and 10.3597 and 1.966 and 2.796. The “Change in Ca5 fluorescence” value (human TRPV1 [3]; log concentration -7 (M), listed as GLA) was 0.359 and 3.081 and 7.321 and 1.04 and 2.553.
